What was measured:
MBP-Rns [1] = biological target: MBP-Rns (Escherichia coli, UniProt P16114, I14F/I17F); test: biochemical
MBP-Rns [2] = biological target: MBP-Rns (Escherichia coli, UniProt P16114, R75A); test: biochemical
MBP-Rns [3] = biological target: MBP-Rns (Escherichia coli, UniProt P16114, H20A); test: biochemical
MBP-Rns [4] = biological target: T1, MBP-Rns (Escherichia coli, UniProt P16114); test: EMSA, inhibition of DNA binding; format: biochemical
T1 construct: full-length codon-optimized Rns with N-terminal MBP solubility tag kept (pMBPRnsOPT2, pMalC2), expressed in E. coli BL21, MBPTrap and heparin columns

## CCCCCCCCCC(=O)O [decanoic acid]
MBP-Rns [1]
  IC50: > 10 mM
MBP-Rns [2]
  IC50: > 10 mM
MBP-Rns [3]
  IC50: > 10 mM
MBP-Rns [4]
  IC50: 1.15 mM

Reference: paper PMC12379584, “Characterization of the ligand binding pocket of the virulence regulator Rns, a member of the AraC/XylS family of transcription factors” (mSphere, 2025)
